Source: US10800754B2, “Heterocyclic amide compound” (TAKEDA PHARMACEUTICAL COMPANY LIMITED, priority 2016, dated 2020)

How the values were obtained:
[1] = target: T1, human PRS protein (Homo sapiens, UniProt P07814); assay: PRS inhibitory activity (ATP/[32P]pyrophosphate exchange enzyme reaction); format: biochemical; conditions: 300 nM test compound; recombinant human PRS (EPRS 998-1512); read-out: inhibitory rate (%) of PRS
T1 construct: to construct His-Avi-hEPRS (998-1512) expression plasmid; His tag (N); Avi tag (N); TEV cleavage site (ENLYFQ/GS, encoded by forward primer hEPRS-TEV-NheF) (N); made in house; host or cells: E. coli BL21(DE3)
T1 sequence (P07814 998-1512): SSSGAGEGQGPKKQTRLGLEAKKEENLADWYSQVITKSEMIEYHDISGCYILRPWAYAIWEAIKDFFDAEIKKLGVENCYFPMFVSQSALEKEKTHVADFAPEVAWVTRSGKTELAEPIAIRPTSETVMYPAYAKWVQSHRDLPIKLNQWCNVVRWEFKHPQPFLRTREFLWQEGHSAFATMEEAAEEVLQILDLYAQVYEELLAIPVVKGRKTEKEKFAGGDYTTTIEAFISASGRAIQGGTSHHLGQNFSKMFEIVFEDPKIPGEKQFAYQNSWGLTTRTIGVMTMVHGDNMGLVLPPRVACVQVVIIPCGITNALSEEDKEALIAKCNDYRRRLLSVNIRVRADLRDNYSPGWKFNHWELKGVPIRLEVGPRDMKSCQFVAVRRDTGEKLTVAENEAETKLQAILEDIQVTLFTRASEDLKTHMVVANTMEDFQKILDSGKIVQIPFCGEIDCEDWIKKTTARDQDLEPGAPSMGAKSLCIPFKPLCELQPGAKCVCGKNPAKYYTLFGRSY
Method in brief: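 His-Avi-tagged human EPRS catalytic domain (998-1512), E. coli-expressed, was preincubated 60 min with compound (enzyme added as 40 nM solution) in Tris pH 7.5, KCl, DTT, Tween 20 and MgCl2. The substrate solution contained 300 μM ATP, 160 μM L-proline, and 400 μM pyrophosphate with [32P]pyrophosphate; reaction ran 30 min at room temperature. Charcoal-captured label was counted, with enzyme-free wells taken as 100% inhibition.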

[2] = test system: human ovarian cancer cell A2780; assay: proliferation inhibitory activity against A2780 cells (CellTiter-Glo); format: cell-based; conditions: A2780, 72 h, 1 μM test compound, 3 days of culture, read-out: proliferation inhibitory rate (%) of A2780 cells

SMILES	inhibition at 0.3 µM [1]	inhibition at 1 µM [2]
CC(C)n1cc(-c2cccc(CC(=O)Nc3cc(N4CC[C@@](C#N)(C5CC5)C4=O)ccn3)c2)cn1 [Example 93, N-(4-((3S)-3-cyano-3-cyclopropyl-2-oxopyrrolidin-1-yl)pyridin-2-yl)-2-(3-(1-isopropyl-1H-pyrazol-4-yl)phenyl)acetamide]	100%	76%
N#C[C@@]1(C2CC2)CCN(c2ccnc(NC(=O)Cc3cccc(-c4cnn(C5CCOC5)c4)c3)c2)C1=O (stereo partly drawn) [Example 94, N-(4-((3S)-3-cyano-3-cyclopropyl-2-oxopyrrolidin-1-yl)pyridin-2-yl)-2-(3-(1-(tetrahydrofuran-3-yl)-1H-pyrazol-4-yl)phenyl)acetamide]	100%	74%
N#C[C@@]1(C2CC2)CCN(c2ccnc(NC(=O)Cc3cccc(-c4cnn(CC(F)(F)C(F)F)c4)c3)c2)C1=O [Example 95, N-(4-((3S)-3-cyano-3-cyclopropyl-2-oxopyrrolidin-1-yl)pyridin-2-yl)-2-(3-(1-(2,2,3,3-tetrafluoropropyl)-1H-pyrazol-4-yl)phenyl)acetamide]	99%	70%
CC(C)(O)CCn1cc(-c2cccc(CC(=O)Nc3cc(N4CC[C@@](C#N)(C5CC5)C4=O)ccn3)c2)cn1 [Example 100, N-(4-((3S)-3-cyano-3-cyclopropyl-2-oxopyrrolidin-1-yl)pyridin-2-yl)-2-(3-(1-(3-hydroxy-3-methylbutyl)-1H-pyrazol-4-yl)phenyl)acetamide]	101%	84%
CC(C)(O)Cn1cc(-c2cccc(CC(=O)Nc3cc(N4CC[C@@](C#N)(C5CC5)C4=O)ccn3)c2)cn1 [Example 101, N-(4-((3S)-3-cyano-3-cyclopropyl-2-oxopyrrolidin-1-yl)pyridin-2-yl)-2-(3-(1-(2-hydroxy-2-methylpropyl)-1H-pyrazol-4-yl)phenyl)acetamide]	99%	69%
Cc1cc(-c2cccc(CC(=O)Nc3cc(N4CC[C@@](C#N)(C5CC5)C4=O)cc(C)n3)c2)cnn1 [Example 103, N-(4-((3S)-3-cyano-3-cyclopropyl-2-oxopyrrolidin-1-yl)-6-methylpyridin-2-yl)-2-(3-(6-methylpyridazin-4-yl)phenyl)acetamide]	97%	67%

Continued, in another order:

inhibition at 0.3 µM [1]	SMILES	inhibition at 1 µM [2]
100%	Cn1cc(-c2cc(F)cc(CC(=O)Nc3cc(N4CC[C@@](C#N)(C5CC5)C4=O)cc(Br)n3)c2)cn1 [Example 97, N-(6-bromo-4-((3S)-3-cyano-3-cyclopropyl-2-oxopyrrolidin-1-yl)pyridin-2-yl)-2-(3-fluoro-5-(1-methyl-1H-pyrazol-4-yl)phenyl)acetamide]	97%
98%	Cc1cc(N2CC[C@@](C#N)(C3CC3)C2=O)cc(NC(=O)Cc2cccc(-c3cnn(C)c3C)c2)n1 [Example 98, N-(4-((3S)-3-cyano-3-cyclopropyl-2-oxopyrrolidin-1-yl)-6-methylpyridin-2-yl)-2-(3-(1,5-dimethyl-1H-pyrazol-4-yl)phenyl)acetamide]	69%
99%	CCc1cc(N2CC[C@@](C#N)(C3CC3)C2=O)cc(NC(=O)Cc2cc(F)cc(-c3cnn(C)c3)c2)n1 [Example 99, N-(4-((3S)-3-cyano-3-cyclopropyl-2-oxopyrrolidin-1-yl)-6-ethylpyridin-2-yl)-2-(3-fluoro-5-(1-methyl-1H-pyrazol-4-yl)phenyl)acetamide]	70%
100%	Cc1cc(N2CC[C@@](C#N)(C3CC3)C2=O)cc(NC(=O)Cc2cccc(-c3cn(C)nc3C)c2)n1 [Example 102, N-(4-((3S)-3-cyano-3-cyclopropyl-2-oxopyrrolidin-1-yl)-6-methylpyridin-2-yl)-2-(3-(1,3-dimethyl-1H-pyrazol-4-yl)phenyl)acetamide]	89%
98%	Cc1cc(N2CC[C@@](C#N)(C3CC3)C2=O)nc(NC(=O)Cc2cccc(-c3cnn(C)c3)c2)n1 [Example 132, N-(4-((3S)-3-cyano-3-cyclopropyl-2-oxopyrrolidin-1-yl)-6-methylpyrimidin-2-yl)-2-(3-(1-methyl-1H-pyrazol-4-yl)phenyl)acetamide]	73%
